Assay results taken from patent US10836725B2, “Modulators of the integrated stress pathway” (Calico Life Sciences LLC, priority 2016, dated 2020).

System: ATF4 luciferase reporter
Test: ATF4-Luc assay in HEK293T cells carrying the ATF4 luciferase reporter (in vitro model of VWMD)
Assay type: cell-based, human
Settings: Homo sapiens, HEK-293T, 1 μg/mL tunicamycin, 7 hours, luminescence (One Glo)
Description: In order to test exemplary compounds of the invention in a cellular context, a stable VWMD cell line was first constructed. The ATF4 reporter was prepared by fusing the human full-length ATF4 5′-UTR (NCBI Accession No. BC022088.2) in front of the firefly luciferase (FLuc) coding sequence lacking the initiator methionine as described in Sidrauski et al (eLife 2013). The construct was used to produce recombinant retroviruses using standard methods and the resulting viral supernatant was used to transduce HEK293T cells, which were then subsequently selected with puromycin to generate a stable cell line.
HEK293T cells carrying the ATF4 luciferase reporter were plated on polylysine coated 384-well plates (Greiner Bio-one) at 30,000 cells per well. Cells were treated the next day with 1 μg/mL tunicamycin and 200 nM of a compound of Formula (I) for 7 hours. Luminescence was measured using One Glo (Promega) as specified by the manufacturer. Cells were maintained in DMEM with L-glutamine supplemented with 10% heat-inactivated FBS (Gibco) and Antibiotic-Antimycotic solution (Gibco).
Table 2 below summarizes the EC50 data obtained using the ATF4-Luc assay for exemplary compounds of the invention.

EC50 [nM]	Compound
> 2000	O=C(COc1ccc(Cl)c(F)c1)NC12CC(C(=O)NCc3ccccc3)(C1)C2 [Compound 162, N-benzyl-3-[2-(4-chloro-3-fluorophenoxy)acetamido]bicyclo[1.1.1]pentane-1-carboxamide]
> 2000	O=C(COc1ccc(Cl)c(F)c1)NC12CC(C(=O)NCc3c(Cl)cccc3Cl)(C1)C2 [Compound 163, 3-[2-(4-chloro-3-fluorophenoxy)acetamido]-N-[(2,6-dichlorophenyl)methyl]bicyclo[1.1.1]pentane-1-carboxamide]
> 2000	Cc1ccncc1CNC(=O)C12CC(NC(=O)COc3ccc(Cl)c(F)c3)(C1)C2 [Compound 165, 3-[2-(4-chloro-3-fluorophenoxy)acetamido]-N-[(4-methylpyridin-3-yl)methyl]bicyclo[1.1.1]pentane-1-carboxamide]
> 2000	Cc1cccc(CNC(=O)C23CC(NC(=O)COc4ccc(Cl)c(F)c4)(C2)C3)c1 [Compound 166, 3-[2-(4-chloro-3-fluorophenoxy)acetamido]-N-[(3-methylphenyl)methyl]bicyclo[1.1.1]pentane-1-carboxamide]
> 2000	CC(C)(C)c1ccc(CNC(=O)C23CC(NC(=O)COc4ccc(Cl)c(F)c4)(C2)C3)cc1 [Compound 167, N-[(4-tert-butylphenyl)methyl]-3-[2-(4-chloro-3-fluorophenoxy)acetamido]bicyclo[1.1.1]pentane-1-carboxamide]
1000 to 2000	Cc1ccc(CNC(=O)C23CC(NC(=O)COc4ccc(Cl)c(F)c4)(C2)C3)nc1 [Compound 168, 3-[2-(4-chloro-3-fluorophenoxy)acetamido]-N-[(5-methylpyridin-2-yl)methyl]bicyclo[1.1.1]pentane-1-carboxamide]
500 to 1000	O=C(COc1ccc(Cl)c(F)c1)NC12CC(C(=O)NCc3ccc(OC(F)F)cc3)(C1)C2 [Compound 169, 3-[2-(4-chloro-3-fluorophenoxy)acetamido]-N-{[4-(difluoromethoxy)phenyl]methyl}bicyclo[1.1.1]pentane-1-carboxamide]
> 2000	O=C(COc1ccc(Cl)c(F)c1)NC12CC(C(=O)NCc3cnoc3)(C1)C2 [Compound 170, 3-[2-(4-chloro-3-fluorophenoxy)acetamido]-N-[(1,2-oxazol-4-yl)methyl]bicyclo[1.1.1]pentane-1-carboxamide]
> 2000	COc1ccc(CNC(=O)C23CC(NC(=O)COc4ccc(Cl)c(F)c4)(C2)C3)cc1F [Compound 173, 3-[2-(4-chloro-3-fluorophenoxy)acetamido]-N-[(3-fluoro-4-methoxyphenyl)methyl]bicyclo[1.1.1]pentane-1-carboxamide]
> 2000	Cc1ccc(F)c(CNC(=O)C23CC(NC(=O)COc4ccc(Cl)c(F)c4)(C2)C3)c1 [Compound 174, 3-[2-(4-chloro-3-fluorophenoxy)acetamido]-N-[(2-fluoro-5-methylphenyl)methyl]bicyclo[1.1.1]pentane-1-carboxamide]
> 2000	O=C(COc1ccc(Cl)c(F)c1)NC12CC(C(=O)NCc3ccc(F)c(C(F)(F)F)c3)(C1)C2 [Compound 180, 3-[2-(4-chloro-3-fluorophenoxy)acetamido]-N-{[4-fluoro-3-(trifluoromethyl)phenyl]methyl}bicyclo [1.1.1]pentane-1-carboxamide]
> 2000	O=C(COc1ccc(Cl)c(F)c1)NC12CC(C(=O)NCc3c(F)cc(Cl)cc3F)(C1)C2 [Compound 181, N-[(4-chloro-2,6-difluorophenyl)methyl]-3-[2-(4-chloro-3-fluorophenoxy)acetamido]bicyclo[1.1.1]pentane-1-carboxamide]
> 2000	CCOc1ccccc1CNC(=O)C12CC(NC(=O)COc3ccc(Cl)c(F)c3)(C1)C2 [Compound 182, 3-[2-(4-chloro-3-fluorophenoxy)acetamido]-N-[(2-ethoxyphenyl)methyl]bicyclo[1.1.1]pentane-1-carboxamide]
> 2000	O=C(COc1ccc(Cl)c(F)c1)NC12CC(C(=O)NCc3ccc(F)c(F)c3)(C1)C2 [Compound 185, 3-[2-(4-chloro-3-fluorophenoxy)acetamido]-N-[(3,4-difluorophenyl)methyl]bicyclo[1.1.1]pentane-1-carboxamide]

Second part, the compound before the results:

Compound	EC50 [nM]
CC(Cc1ccc(F)cc1)NC(=O)C12CC(NC(=O)COc3ccc(Cl)c(F)c3)(C1)C2 (stereo not shown) [Compound 171, 3-[2-(4-chloro-3-fluorophenoxy)acetamido]-N-[1-(4-fluorophenyl)propan-2-yl]bicyclo[1.1.1]pentane-1-carboxamide]	1000 to 2000
CC(NC(=O)C12CC(NC(=O)COc3ccc(Cl)c(F)c3)(C1)C2)c1ccccc1 (stereo not shown) [Compound 172, 3-[2-(4-chloro-3-fluorophenoxy)acetamido]-N-(1-phenylethyl)bicyclo[1.1.1]pentane-1-carboxamide]	> 2000
CN(Cc1ccccc1)C(=O)C12CC(NC(=O)COc3ccc(Cl)c(F)c3)(C1)C2 [Compound 175, N-benzyl-3-[2-(4-chloro-3-fluorophenoxy)acetamido]-N-methylbicyclo[1.1.1]pentane-1-carboxamide]	> 2000
Cc1csc(CNC(=O)C23CC(NC(=O)COc4ccc(Cl)c(F)c4)(C2)C3)n1 [Compound 176, 3-[2-(4-chloro-3-fluorophenoxy)acetamido]-N-[(4-methyl-1,3-thiazol-2-yl)methyl]bicyclo[1.1.1]pentane-1-carboxamide]	> 2000
Cc1cnc(CNC(=O)C23CC(NC(=O)COc4ccc(Cl)c(F)c4)(C2)C3)o1 [Compound 177, 3-[2-(4-chloro-3-fluorophenoxy)acetamido]-N-[(5-methyl-1,3-oxazol-2-yl)methyl]bicyclo[1.1.1]pentane-1-carboxamide]	> 2000
Cc1cnc(CNC(=O)C23CC(NC(=O)COc4ccc(Cl)c(F)c4)(C2)C3)s1 [Compound 178, 3-[2-(4-chloro-3-fluorophenoxy)acetamido]-N-[(5-methyl-1,3-thiazol-2-yl)methyl]bicyclo[1.1.1]pentane-1-carboxamide]	> 2000
Cn1ccc(CNC(=O)C23CC(NC(=O)COc4ccc(Cl)c(F)c4)(C2)C3)n1 [Compound 179, 3-[2-(4-chloro-3-fluorophenoxy)acetamido]-N-[(1-methyl-1H-pyrazol-3-yl)methyl]bicyclo[1.1.1]pentane-1-carboxamide]	> 2000
C[C@H](NC(=O)C12CC(NC(=O)COc3ccc(Cl)c(F)c3)(C1)C2)c1ccc(Cl)cc1 [Compound 183, 3-[2-(4-chloro-3-fluorophenoxy)acetamido]-N-[(1S)-1-(4-chlorophenyl)ethyl]bicyclo[1.1.1]pentane-1-carboxamide]	> 2000
Cn1nccc1CNC(=O)C12CC(NC(=O)COc3ccc(Cl)c(F)c3)(C1)C2 [Compound 184, 3-[2-(4-chloro-3-fluorophenoxy)acetamido]-N-[(1-methyl-1H-pyrazol-5-yl)methyl]bicyclo[1.1.1]pentane-1-carboxamide]	> 2000
Cn1ccnc1CNC(=O)C12CC(NC(=O)COc3ccc(Cl)c(F)c3)(C1)C2 [Compound 186, 3-[2-(4-chloro-3-fluorophenoxy)acetamido]-N-[(1-methyl-1H-imidazol-2-yl)methyl]bicyclo[1.1.1]pentane-1-carboxamide]	> 2000
Cc1cccc([C@H](C)NC(=O)C23CC(NC(=O)COc4ccc(Cl)c(F)c4)(C2)C3)c1 [Compound 187, 3-[2-(4-chloro-3-fluorophenoxy)acetamido]-N-[(1S)-1-(3-methylphenyl)ethyl]bicyclo[1.1.1]pentane-1-carboxamide]	> 2000
